Assay results reported in patent publication US9655884B2, “Antiparasitic use of isoxazoline compounds” (Intervet Inc., priority 2013, dated 2017).

Key:
[1] = test system: C. felis; assay: In vivo study in dogs to assess flea control efficacy in a simulated home environment; conditions: 25 mg/kg oral; for Mean flea numbers (arithmetic), Treated group / Mean flea numbers (geometric), Treated group: 25 mg/kg
Method: Twenty healthy male and female mixed-breed dogs ≧12 weeks old were housed in individual pens. Ten dogs per group were randomly assigned to receive either a fluralaner chewable tablet (Bravecto™) or no treatment. Each pen contained the bottom half of a dog carrier lined with carpet as bedding. Before treatment, each dog was infested twice (28 and 21 days pretreatment) with 100 adult, unfed C. felis to establish a flea population prior to treatment on each dog. Flea media was added to the carpet 4 weeks before the treatment date and weekly thereafter for the remainder of the study to encourage development of an active, developing population of juvenile flea stages in each pen. On the treatment day, dogs in the treated group received fluralaner at a dose close to 25 mg/kg body weight by oral administration. The chewable tablet(s) were administered by placement in the back of the oral cavity over the tongue to initiate swallowing. Dogs in the negative control group remained untreated. Flea counts were performed on all dogs 1 day before treatment, 1 day after treatment and then every 7 days until completion of the study 84 days later. All live fleas recovered were held and re-infested on the dog after the comb count was completed. Each dog was also infested with 50 newly emerged unfed adult fleas on days 22, 50 and 78 to simulate natural infestation post-treatment. The individual dog was the experimental unit and data from each flea count time point were analyzed separately. Flea count data were transformed [Y=loge(x+1)] and analyzed by a mixed linear model including treatment as the fixed effect and block as the random effect. Kenward-Rogers adjustment was used to determine the denominator degree of freedom. A two-tailed test was used within the mixed linear model for the comparison between treatment groups and statistical significance was declared when P≦0.05. SAS version 9.3 was the primary software used for analysis. Efficacy was calculated using arithmetic and geometric means with Abbott's formula: Efficacy (%)=100×(MC−MT)/MC, where MC was the arithmetic or geometric mean number of total adult live fleas on untreated dogs and MT the arithmetic or geometric mean number of total adult live fleas on treated dogs.

[2] = Adverse events in treated dogs following administration; type: in vivo; conditions: chewable tablet (Bravecto), close to 25 mg/kg body weight oral
Method: Twenty healthy male and female mixed-breed dogs ≧12 weeks old were housed in individual pens. Ten dogs per group were randomly assigned to receive either a fluralaner chewable tablet (Bravecto™) or no treatment. Each pen contained the bottom half of a dog carrier lined with carpet as bedding. Before treatment, each dog was infested twice (28 and 21 days pretreatment) with 100 adult, unfed C. felis to establish a flea population prior to treatment on each dog. Flea media was added to the carpet 4 weeks before the treatment date and weekly thereafter for the remainder of the study to encourage development of an active, developing population of juvenile flea stages in each pen. On the treatment day, dogs in the treated group received fluralaner at a dose close to 25 mg/kg body weight by oral administration. The chewable tablet(s) were administered by placement in the back of the oral cavity over the tongue to initiate swallowing. Dogs in the negative control group remained untreated.

[3] = day 1 post treatment, listed as fluranaler
[4] = day 7 post treatment, listed as fluranaler
[5] = day 14 post treatment, listed as fluranaler
[6] = day 21 post treatment, listed as fluranaler
[7] = day 28 post treatment, listed as fluranaler
[8] = day 35 post treatment, listed as fluranaler
[9] = day 42 post treatment, listed as fluranaler
[10] = day 49 post treatment, listed as fluranaler
[11] = day 56 post treatment, listed as fluranaler
[12] = day 63 post treatment, listed as fluranaler
[13] = day 70 post treatment, listed as fluranaler
[14] = day 77 post treatment, listed as fluranaler
[15] = day 84 post treatment, listed as fluranaler

With `Cc1cc(C2=NOC(c3cc(Cl)cc(Cl)c3)(C(F)(F)F)C2)ccc1C(=O)NCC(=O)NCC(F)(F)F` (centres unmarked) [fluralaner, 4-[5-(3,5-Dichlorophenyl)-5-trifluoromethyl-4,5-dihydroisoxazol-3-yl]-2-methyl-N-[(2,2,2-trifluoro-ethylcarbamoyl)-methyl]-benzamide] the Flea-control efficacy ([1]; all post-treatment time points (12-week post-treatment period)) was about 100%, the “Efficacy (from arithmetic mean flea counts)” value ([1]; day 1 post treatment) was 100/100% and the “Efficacy (from geometric mean flea counts)” value ([1]; day 1 post treatment) was 100/100%. The “Mean flea numbers (arithmetic), Treated group” value (“Mean flea numbers (arithmetic)” below) ([1]; day 1 post treatment) was 0, the “Mean flea numbers (geometric), Treated group” value (“Mean flea numbers (geometric)” below) ([1]; day 1 post treatment) was 0 and the “Mean flea numbers (arithmetic)” value [1, 3] was 0/0. The “Mean flea numbers (geometric)” value [1, 3] was 0/0, the “Efficacy (from arithmetic mean flea counts)” value ([1]; day 7 post treatment) was 100/100% and the “Efficacy (from geometric mean flea counts)” value ([1]; day 7 post treatment) was 100/100%. The “Mean flea numbers (arithmetic)” value ([1]; day 7 post treatment) was 0, the “Mean flea numbers (geometric)” value ([1]; day 7 post treatment) was 0 and the “Mean flea numbers (arithmetic)” value [1, 4] was 0/0. The “Mean flea numbers (geometric)” value [1, 4] was 0/0, the “Efficacy (from arithmetic mean flea counts)” value ([1]; day 14 post treatment) was 100/100% and the “Efficacy (from geometric mean flea counts)” value ([1]; day 14 post treatment) was 100/100%. The “Mean flea numbers (arithmetic)” value ([1]; day 14 post treatment) was 0, the “Mean flea numbers (geometric)” value ([1]; day 14 post treatment) was 0 and the “Mean flea numbers (arithmetic)” value [1, 5] was 0/0. For the same compound, the “Mean flea numbers (geometric)” value [1, 5] was 0/0, the “Efficacy (from arithmetic mean flea counts)” value ([1]; day 21 post treatment) was 100/100% and the “Efficacy (from geometric mean flea counts)” value ([1]; day 21 post treatment) was 100/100%. The “Mean flea numbers (arithmetic)” value ([1]; day 21 post treatment) was 0, the “Mean flea numbers (geometric)” value ([1]; day 21 post treatment) was 0 and the “Mean flea numbers (arithmetic)” value [1, 6] was 0/0. The “Mean flea numbers (geometric)” value [1, 6] was 0/0, the “Efficacy (from arithmetic mean flea counts)” value ([1]; day 28 post treatment) was 100/100% and the “Efficacy (from geometric mean flea counts)” value ([1]; day 28 post treatment) was 100/100%. For the same compound, the “Mean flea numbers (arithmetic)” value ([1]; day 28 post treatment) was 0, the “Mean flea numbers (geometric)” value ([1]; day 28 post treatment) was 0 and the “Mean flea numbers (arithmetic)” value [1, 7] was 0/0. The “Mean flea numbers (geometric)” value [1, 7] was 0/0, the “Efficacy (from arithmetic mean flea counts)” value ([1]; day 35 post treatment) was 100/100% and the “Efficacy (from geometric mean flea counts)” value ([1]; day 35 post treatment) was 100/100%. For the same compound, the “Mean flea numbers (arithmetic)” value ([1]; day 35 post treatment) was 0, the “Mean flea numbers (geometric)” value ([1]; day 35 post treatment) was 0 and the “Mean flea numbers (arithmetic)” value [1, 8] was 0/0. For the same compound, the “Mean flea numbers (geometric)” value [1, 8] was 0/0, the “Efficacy (from arithmetic mean flea counts)” value ([1]; day 42 post treatment) was 100/100% and the “Efficacy (from geometric mean flea counts)” value ([1]; day 42 post treatment) was 100/100%. For the same compound, the “Mean flea numbers (arithmetic)” value ([1]; day 42 post treatment) was 0, the “Mean flea numbers (geometric)” value ([1]; day 42 post treatment) was 0 and the “Mean flea numbers (arithmetic)” value [1, 9] was 0/0. The “Mean flea numbers (geometric)” value [1, 9] was 0/0, the “Efficacy (from arithmetic mean flea counts)” value ([1]; day 49 post treatment) was 99.8% and the “Efficacy (from geometric mean flea counts)” value ([1]; day 49 post treatment) was 99.7%. For the same compound, the “Mean flea numbers (arithmetic)” value ([1]; day 49 post treatment) was 0.1, the “Mean flea numbers (geometric)” value ([1]; day 49 post treatment) was 0.1 and the “Mean flea numbers (arithmetic)” value [1, 10] was 0.1/0.1. For the same compound, the “Mean flea numbers (geometric)” value [1, 10] was 0.1/0.1, the “Efficacy (from arithmetic mean flea counts)” value ([1]; day 56 post treatment) was 99.8/99.8% and the “Efficacy (from geometric mean flea counts)” value ([1]; day 56 post treatment) was 99.8/99.8%. For the same compound, the “Mean flea numbers (arithmetic)” value ([1]; day 56 post treatment) was 0.1, the “Mean flea numbers (geometric)” value ([1]; day 56 post treatment) was 0.1 and the “Mean flea numbers (arithmetic)” value [1, 11] was 0.1/0.1. The “Mean flea numbers (geometric)” value [1, 11] was 0.1/0.1, the “Efficacy (from arithmetic mean flea counts)” value ([1]; day 63 post treatment) was 100/100% and the “Efficacy (from geometric mean flea counts)” value ([1]; day 63 post treatment) was 100/100%. For the same compound, the “Mean flea numbers (arithmetic)” value ([1]; day 63 post treatment) was 0, the “Mean flea numbers (geometric)” value ([1]; day 63 post treatment) was 0 and the “Mean flea numbers (arithmetic)” value [1, 12] was 0/0. The “Mean flea numbers (geometric)” value [1, 12] was 0/0, the “Efficacy (from arithmetic mean flea counts)” value ([1]; day 70 post treatment) was 99.7% and the “Efficacy (from geometric mean flea counts)” value ([1]; day 70 post treatment) was 99.6%. The “Mean flea numbers (arithmetic)” value ([1]; day 70 post treatment) was 0.1, the “Mean flea numbers (geometric)” value ([1]; day 70 post treatment) was 0.1 and the “Mean flea numbers (arithmetic)” value [1, 13] was 0.1/0.1. The “Mean flea numbers (geometric)” value [1, 13] was 0.1/0.1, the “Efficacy (from arithmetic mean flea counts)” value ([1]; day 77 post treatment) was 100/100% and the “Efficacy (from geometric mean flea counts)” value ([1]; day 77 post treatment) was 100/100%. For the same compound, the “Mean flea numbers (arithmetic)” value ([1]; day 77 post treatment) was 0, the “Mean flea numbers (geometric)” value ([1]; day 77 post treatment) was 0 and the “Mean flea numbers (arithmetic)” value [1, 14] was 0/0. For the same compound, the “Mean flea numbers (geometric)” value [1, 14] was 0/0, the “Efficacy (from arithmetic mean flea counts)” value ([1]; day 84 post treatment) was 100/100% and the “Efficacy (from geometric mean flea counts)” value ([1]; day 84 post treatment) was 100/100%. The “Mean flea numbers (arithmetic)” value ([1]; day 84 post treatment) was 0, the “Mean flea numbers (geometric)” value ([1]; day 84 post treatment) was 0 and the “Mean flea numbers (arithmetic)” value [1, 15] was 0/0. The “Mean flea numbers (geometric)” value [1, 15] was 0/0 and the Adverse events [2] was “No adverse events were observed”.
